Laboratory results from ChEMBL document CHEMBL5303573, “Mapping human microbiome drug metabolism by gut bacteria and their genes” (Nature, 2019).

Details: roseburia intestinalis, 12 h, 2 µM
Description: The drug is tested on Roseburia intestinalis strain: L1-82 for biotransformation. The drug concentrations were measured before and after a 12-h incubation by liquid-chromatography-coupled mass spectrometry (LC–MS)

| Structure (SMILES) | Bacterial Biotransformation |
| --- | --- |
| CN/C(=N/CCSCc1nc[nH]c1C)NC#N [CIMETIDINE] | Compound NOT metabolized |
| Br.CN(C)CCCC1(c2ccc(F)cc2)OCc2cc(C#N)ccc21 (centres undefined) [CITALOPRAM HYDROBROMIDE] | Compound NOT metabolized |
| O=C(O)COCCN1CCN(C(c2ccccc2)c2ccc(Cl)cc2)CC1 (centres undefined) [CETIRIZINE] | Compound NOT metabolized |
| NC12CC3CC(CC(C3)C1)C2 [AMANTADINE] | Compound NOT metabolized |

Experiment: The drug is tested on Bacteroides cellulosilyticus strain: DSM14838 for biotransformation. The drug concentrations were measured before and after a 12-h incubation by liquid-chromatography-coupled mass spectrometry (LC–MS)
Details: 2 µM

| Structure (SMILES) | Bacterial Biotransformation |
| --- | --- |
| CN/C(=N/CCSCc1nc[nH]c1C)NC#N [CIMETIDINE] | Compound NOT metabolized |
| O=C(O)COCCN1CCN(C(c2ccccc2)c2ccc(Cl)cc2)CC1 (centres undefined) [CETIRIZINE] | Compound metabolized |
| NC12CC3CC(CC(C3)C1)C2 [AMANTADINE] | Compound metabolized |

Details: akkermansia muciniphila, 12 h, 2 µM
Description: The drug is tested on Akkermansia muciniphila strain: ATCC BAA-835 for biotransformation. The drug concentrations were measured before and after a 12-h incubation by liquid-chromatography-coupled mass spectrometry (LC–MS)

| Structure (SMILES) | Bacterial Biotransformation |
| --- | --- |
| CN/C(=N/CCSCc1nc[nH]c1C)NC#N [CIMETIDINE] | Compound NOT metabolized |
| Br.CN(C)CCCC1(c2ccc(F)cc2)OCc2cc(C#N)ccc21 (centres undefined) [CITALOPRAM HYDROBROMIDE] | Compound NOT metabolized |
| O=C(O)COCCN1CCN(C(c2ccccc2)c2ccc(Cl)cc2)CC1 (centres undefined) [CETIRIZINE] | Compound NOT metabolized |
| NC12CC3CC(CC(C3)C1)C2 [AMANTADINE] | Compound NOT metabolized |

Experiment: The drug is tested on Subdoligranulum variabile strain: DSM15176 for biotransformation. The drug concentrations were measured before and after a 12-h incubation by liquid-chromatography-coupled mass spectrometry (LC–MS)
Details: 2 µM

| Structure (SMILES) | Bacterial Biotransformation |
| --- | --- |
| O=C(O)COCCN1CCN(C(c2ccccc2)c2ccc(Cl)cc2)CC1 (centres undefined) [CETIRIZINE] | Compound metabolized |

Experiment: The drug is tested on Eubacterium ventriosum strain: ATCC27560 for biotransformation. The drug concentrations were measured before and after a 12-h incubation by liquid-chromatography-coupled mass spectrometry (LC–MS)
Assay type: ADME
Design: dose 2 uM, timepoint 0 vs 12 hours
Details: 2 µM

| Structure (SMILES) | Bacterial Biotransformation |
| --- | --- |
| CN/C(=N/CCSCc1nc[nH]c1C)NC#N [CIMETIDINE] | Compound NOT metabolized |
| Br.CN(C)CCCC1(c2ccc(F)cc2)OCc2cc(C#N)ccc21 (centres undefined) [CITALOPRAM HYDROBROMIDE] | Compound NOT metabolized |
| O=C(O)COCCN1CCN(C(c2ccccc2)c2ccc(Cl)cc2)CC1 (centres undefined) [CETIRIZINE] | Compound NOT metabolized |
| NC12CC3CC(CC(C3)C1)C2 [AMANTADINE] | Compound NOT metabolized |

Details: bacteroides thetaiotaomicron, 12 h, 2 µM
Description: The drug is tested on Bacteroides thetaiotaomicron strain: VPI-5482 for biotransformation. The drug concentrations were measured before and after a 12-h incubation by liquid-chromatography-coupled mass spectrometry (LC–MS)

| Structure (SMILES) | Bacterial Biotransformation |
| --- | --- |
| CN/C(=N/CCSCc1nc[nH]c1C)NC#N [CIMETIDINE] | Compound metabolized |
| Br.CN(C)CCCC1(c2ccc(F)cc2)OCc2cc(C#N)ccc21 (centres undefined) [CITALOPRAM HYDROBROMIDE] | Compound NOT metabolized |
| O=C(O)COCCN1CCN(C(c2ccccc2)c2ccc(Cl)cc2)CC1 (centres undefined) [CETIRIZINE] | Compound metabolized |
| NC12CC3CC(CC(C3)C1)C2 [AMANTADINE] | Compound NOT metabolized |

Details: bacteroides eggerthii, 12 h, 2 µM
Description: The drug is tested on Bacteroides eggerthii strain: DSM20697 for biotransformation. The drug concentrations were measured before and after a 12-h incubation by liquid-chromatography-coupled mass spectrometry (LC–MS)

| Structure (SMILES) | Bacterial Biotransformation |
| --- | --- |
| CN/C(=N/CCSCc1nc[nH]c1C)NC#N [CIMETIDINE] | Compound NOT metabolized |
| Br.CN(C)CCCC1(c2ccc(F)cc2)OCc2cc(C#N)ccc21 (centres undefined) [CITALOPRAM HYDROBROMIDE] | Compound NOT metabolized |
| O=C(O)COCCN1CCN(C(c2ccccc2)c2ccc(Cl)cc2)CC1 (centres undefined) [CETIRIZINE] | Compound metabolized |
| NC12CC3CC(CC(C3)C1)C2 [AMANTADINE] | Compound NOT metabolized |

Details: segatella copri, 12 h, 2 µM
Description: The drug is tested on Prevotella copri strain: DSM18205 for biotransformation. The drug concentrations were measured before and after a 12-h incubation by liquid-chromatography-coupled mass spectrometry (LC–MS)

| Structure (SMILES) | Bacterial Biotransformation |
| --- | --- |
| Br.CN(C)CCCC1(c2ccc(F)cc2)OCc2cc(C#N)ccc21 (centres undefined) [CITALOPRAM HYDROBROMIDE] | Compound NOT metabolized |
| O=C(O)COCCN1CCN(C(c2ccccc2)c2ccc(Cl)cc2)CC1 (centres undefined) [CETIRIZINE] | Compound metabolized |
| NC12CC3CC(CC(C3)C1)C2 [AMANTADINE] | Compound NOT metabolized |

Experiment: The drug is tested on Collinsella intestinalis strain: DSM13280 for biotransformation. The drug concentrations were measured before and after a 12-h incubation by liquid-chromatography-coupled mass spectrometry (LC–MS)
Details: 2 µM

| Structure (SMILES) | Bacterial Biotransformation |
| --- | --- |
| CN/C(=N/CCSCc1nc[nH]c1C)NC#N [CIMETIDINE] | Compound NOT metabolized |
| Br.CN(C)CCCC1(c2ccc(F)cc2)OCc2cc(C#N)ccc21 (centres undefined) [CITALOPRAM HYDROBROMIDE] | Compound NOT metabolized |
| NC12CC3CC(CC(C3)C1)C2 [AMANTADINE] | Compound NOT metabolized |

Experiment: The drug is tested on Clostridium asparagiforme strain: DSM15981 for biotransformation. The drug concentrations were measured before and after a 12-h incubation by liquid-chromatography-coupled mass spectrometry (LC–MS)
Assay type: ADME
Design: dose 2 uM, timepoint 0 vs 12 hours
Details: enterocloster asparagiformis, 2 µM

| Structure (SMILES) | Bacterial Biotransformation |
| --- | --- |
| CN/C(=N/CCSCc1nc[nH]c1C)NC#N [CIMETIDINE] | Compound NOT metabolized |
| Br.CN(C)CCCC1(c2ccc(F)cc2)OCc2cc(C#N)ccc21 (centres undefined) [CITALOPRAM HYDROBROMIDE] | Compound NOT metabolized |
| NC12CC3CC(CC(C3)C1)C2 [AMANTADINE] | Compound NOT metabolized |

Details: bacteroides thetaiotaomicron, 12 h, 2 µM
Remark: another data set of the same source
Description: The drug is tested on Bacteroides thetaiotaomicron strain: 7330 for biotransformation. The drug concentrations were measured before and after a 12-h incubation by liquid-chromatography-coupled mass spectrometry (LC–MS)

| Structure (SMILES) | Bacterial Biotransformation |
| --- | --- |
| Br.CN(C)CCCC1(c2ccc(F)cc2)OCc2cc(C#N)ccc21 (centres undefined) [CITALOPRAM HYDROBROMIDE] | Compound NOT metabolized |
| O=C(O)COCCN1CCN(C(c2ccccc2)c2ccc(Cl)cc2)CC1 (centres undefined) [CETIRIZINE] | Compound metabolized |
| NC12CC3CC(CC(C3)C1)C2 [AMANTADINE] | Compound metabolized |

Experiment: The drug is tested on Dorea formicigenerans strain: ATCC27755 for biotransformation. The drug concentrations were measured before and after a 12-h incubation by liquid-chromatography-coupled mass spectrometry (LC–MS)
Details: 2 µM

| Structure (SMILES) | Bacterial Biotransformation |
| --- | --- |
| CN/C(=N/CCSCc1nc[nH]c1C)NC#N [CIMETIDINE] | Compound NOT metabolized |
| Br.CN(C)CCCC1(c2ccc(F)cc2)OCc2cc(C#N)ccc21 (centres undefined) [CITALOPRAM HYDROBROMIDE] | Compound NOT metabolized |
| O=C(O)COCCN1CCN(C(c2ccccc2)c2ccc(Cl)cc2)CC1 (centres undefined) [CETIRIZINE] | Compound NOT metabolized |
| NC12CC3CC(CC(C3)C1)C2 [AMANTADINE] | Compound NOT metabolized |

Experiment: The drug is tested on Blautia luti strain: DSM14534 for biotransformation. The drug concentrations were measured before and after a 12-h incubation by liquid-chromatography-coupled mass spectrometry (LC–MS)
Assay type: ADME
Design: dose 2 uM, timepoint 0 vs 12 hours
Details: 2 µM

| Structure (SMILES) | Bacterial Biotransformation |
| --- | --- |
| CN/C(=N/CCSCc1nc[nH]c1C)NC#N [CIMETIDINE] | Compound NOT metabolized |
| Br.CN(C)CCCC1(c2ccc(F)cc2)OCc2cc(C#N)ccc21 (centres undefined) [CITALOPRAM HYDROBROMIDE] | Compound NOT metabolized |
| O=C(O)COCCN1CCN(C(c2ccccc2)c2ccc(Cl)cc2)CC1 (centres undefined) [CETIRIZINE] | Compound NOT metabolized |
| NC12CC3CC(CC(C3)C1)C2 [AMANTADINE] | Compound NOT metabolized |

Experiment: The drug is tested on Bacteroides fragilis strain: HMW610 for biotransformation. The drug concentrations were measured before and after a 12-h incubation by liquid-chromatography-coupled mass spectrometry (LC–MS)
Details: 2 µM

| Structure (SMILES) | Bacterial Biotransformation |
| --- | --- |
| CN/C(=N/CCSCc1nc[nH]c1C)NC#N [CIMETIDINE] | Compound NOT metabolized |
| Br.CN(C)CCCC1(c2ccc(F)cc2)OCc2cc(C#N)ccc21 (centres undefined) [CITALOPRAM HYDROBROMIDE] | Compound NOT metabolized |
| O=C(O)COCCN1CCN(C(c2ccccc2)c2ccc(Cl)cc2)CC1 (centres undefined) [CETIRIZINE] | Compound metabolized |
| NC12CC3CC(CC(C3)C1)C2 [AMANTADINE] | Compound NOT metabolized |

Experiment: The drug is tested on Bacteroides vulgatus strain: ATCC8482 for biotransformation. The drug concentrations were measured before and after a 12-h incubation by liquid-chromatography-coupled mass spectrometry (LC–MS)
Details: phocaeicola vulgatus, 2 µM

| Structure (SMILES) | Bacterial Biotransformation |
| --- | --- |
| Br.CN(C)CCCC1(c2ccc(F)cc2)OCc2cc(C#N)ccc21 (centres undefined) [CITALOPRAM HYDROBROMIDE] | Compound NOT metabolized |
| O=C(O)COCCN1CCN(C(c2ccccc2)c2ccc(Cl)cc2)CC1 (centres undefined) [CETIRIZINE] | Compound metabolized |
| NC12CC3CC(CC(C3)C1)C2 [AMANTADINE] | Compound NOT metabolized |

Experiment: The drug is tested on Blautia hansenii strain: DSM20583 for biotransformation. The drug concentrations were measured before and after a 12-h incubation by liquid-chromatography-coupled mass spectrometry (LC–MS)
Details: 2 µM

| Structure (SMILES) | Bacterial Biotransformation |
| --- | --- |
| CN/C(=N/CCSCc1nc[nH]c1C)NC#N [CIMETIDINE] | Compound NOT metabolized |
| O=C(O)COCCN1CCN(C(c2ccccc2)c2ccc(Cl)cc2)CC1 (centres undefined) [CETIRIZINE] | Compound metabolized |
| NC12CC3CC(CC(C3)C1)C2 [AMANTADINE] | Compound NOT metabolized |

Experiment: The drug is tested on Escherichia coli strain: BW25113 for biotransformation. The drug concentrations were measured before and after a 12-h incubation by liquid-chromatography-coupled mass spectrometry (LC–MS)
Details: 2 µM

| Structure (SMILES) | Bacterial Biotransformation |
| --- | --- |
| CN/C(=N/CCSCc1nc[nH]c1C)NC#N [CIMETIDINE] | Compound NOT metabolized |
| Br.CN(C)CCCC1(c2ccc(F)cc2)OCc2cc(C#N)ccc21 (centres undefined) [CITALOPRAM HYDROBROMIDE] | Compound NOT metabolized |

Experiment: The drug is tested on Bacteroides sp. WH2 strain: WH2 for biotransformation. The drug concentrations were measured before and after a 12-h incubation by liquid-chromatography-coupled mass spectrometry (LC–MS)
Details: bacteroides sp. wh2, 12 h, 2 µM

| Structure (SMILES) | Bacterial Biotransformation |
| --- | --- |
| CN/C(=N/CCSCc1nc[nH]c1C)NC#N [CIMETIDINE] | Compound NOT metabolized |
| Br.CN(C)CCCC1(c2ccc(F)cc2)OCc2cc(C#N)ccc21 (centres undefined) [CITALOPRAM HYDROBROMIDE] | Compound NOT metabolized |
| O=C(O)COCCN1CCN(C(c2ccccc2)c2ccc(Cl)cc2)CC1 (centres undefined) [CETIRIZINE] | Compound NOT metabolized |
| NC12CC3CC(CC(C3)C1)C2 [AMANTADINE] | Compound NOT metabolized |

Experiment: The drug is tested on Bifidobacterium breve strain: DSM20213 for biotransformation. The drug concentrations were measured before and after a 12-h incubation by liquid-chromatography-coupled mass spectrometry (LC–MS)
Details: 2 µM

| Structure (SMILES) | Bacterial Biotransformation |
| --- | --- |
| CN/C(=N/CCSCc1nc[nH]c1C)NC#N [CIMETIDINE] | Compound NOT metabolized |
| Br.CN(C)CCCC1(c2ccc(F)cc2)OCc2cc(C#N)ccc21 (centres undefined) [CITALOPRAM HYDROBROMIDE] | Compound NOT metabolized |
| O=C(O)COCCN1CCN(C(c2ccccc2)c2ccc(Cl)cc2)CC1 (centres undefined) [CETIRIZINE] | Compound NOT metabolized |
| NC12CC3CC(CC(C3)C1)C2 [AMANTADINE] | Compound NOT metabolized |
